Columns and labels:
Type in all cases: in vivo
[1] = tested on: Soybean plants; assay: Crop enhancement effect on soybean under drought conditions, then optimal conditions (Example 2b); conditions: for Dry weight of pods: 21 days drought then 25 days optimal conditions
Method: Soybean plants were grown in pots. The plants were treated at R1 (33 days after sewing) or three days before R3 (40 days after sewing) with the compound of formula I at 0.75 l/ha. An untreated control plant was also included. After treatment, the plants were subjected to drought conditions for 21 days before being allowed to grow under optimal conditions for a further 25 days. Eight replicates of the control and each treatment were harvested for analysis of yield and chlorophyll content. […]

[2] = tested on: glutathione reductase; assay: Enzymatic analysis of soybean plants under drought conditions (Example 2a); conditions: 0.75 l/ha at R1 or R3
Method: Soybean plants were grown in pots. The plants were treated at R1 (36 days after sewing) or R3 (44 days after sewing) with the compound of formula I at 0.75 l/ha. An untreated control plant was also included. After treatment, the plants were subjected to drought conditions until the end of the trial at day 65. Five replicates of the control and each treatment were harvested for analysis of yield and enzymatic activity.

[3] = tested on: bread wheat (Triticum aestivum L.) and durum wheat (Triticum durum Desf.); assay: Further wheat field trials under controlled and natural drought stress (Example 1e); conditions: for average grain yield increase compared to untreated check / mean TGW increase versus untreated check: multitrial analysis; for average grain yield increase compared to untreated check: all 26 disease-free modalities, 30 or 75 g ha^-1; for mean TGW increase versus untreated check: controlled and natural drought stress, 20 modalities; for grain yield increase compared to untreated check: only trials under controlled drought stress conditions
Description: Wheat field trials were designed as randomized complete blocks with six replicates. Sowing, fertilization and general crop maintenance were done in accordance to locally accepted best practice. Crop protection maintenance products were applied preventatively only if required across all trial area (check and experimental plots and boundary areas) including locally registered seed treatment products, herbicides and insecticides. In case of potential disease attack, DMI and/or contact fungicides were applied preventatively. Application of fungicides from Qo inhibitors (strobilurines) and SDHI groups were not allowed to avoid possible interaction with compound I experimental treatments. Any products with plant growth regulator effects were excluded as well. Pesticides were applied not less than three to four days before or after experimental applications of compound I.
Following assessments were taken: general phytotoxicity at 7 and 14 days after application, general pest damage ratings before harvest, grain yield adjusted to 10% standard moisture (calculation based on fresh grain weight and grain moisture at harvest), thousand grain weight (TGW) adjusted to 10% standard moisture.
Entire plots or only central treated areas were harvested manually using cutters with stationary threshers (trials located in Argentina, Egypt and India) or with small-plot combine-harvesters (trials located in France, Italy and USA).
Single trial statistical analysis of variance (ANOVA) was done with Agstat 1.6 / ACSAP 4.29. Multi-trial analysis was based on paired t-test with comparison of compound I experimental treatments versus untreated checks and was done with TIBCO® Spotfire® 7.0.1.
To minimize risk of environmental impacts from rain on drought stress period and level, all proposed locations were validated through internal Environment and Crop Modelling process. This modelling allowed to calculate the potential drought stress intensity through estimation of climatic cumulative water deficit (sum of all daily water deficit during reproductive stage of wheat development). Daily water deficit was calculated as difference between daily precipitation and daily evapotranspiration by wheat plants. Thirty-eight candidate locations were proposed as suitable for drought stress trials. We performed field trials at fifteen locations from which we present results from the eleven disease-free trials that originated from seven locations: Egypt (Kaha), Italy (Foggia), India (Dongargaon, Mandleshwar and Sanwer) and USA (Woodland, CA; Jerome, ID).
Each field trial had two adjacent blocks: well-watered (WW) block with untreated check plots used for stress level estimation and grain yield reference and water-stressed (WS) block with experimental treatments including untreated check plots. Plot size varied between trials from 8.45 m^2 (Woodland, US) up to 30 m^2 (Kaha, EG) and harvested plot size was from 8.45 m^2 (Woodland, US) up to 20.7 m^2 (India). Seven locally adapted drought sensitive commercial varieties of spring and winter bread wheat (Triticum aestivum L.) and durum wheat (Triticum durum Desf.) were tested: var. Massimo Meridio (Foggia, IT), var. Saha 94 and Sods 12 (Kaha, EG), var. GW322 and GW366 (India), var. Alturas (Jerome, US) and var. Summit 515 (Woodland, US).
To manage drought stress, three types of water irrigation systems were used: precise drip irrigation (Kaha, EG; Foggia, IT; Woodland, US), solid-set sprinkler irrigation (Jerome, US) and flood irrigation (all sites in India). Plants in WW blocks were well irrigated from sowing till harvest to compensate 100% of evapotranspiration demand, targeting the optimum yield achievable in the trial area. Plants in WS blocks were irrigated from planting till the beginning of pre-stress period exactly at the same level of water supply as in WW conditions. […]

[4] = 0.75 l/ha @ R1, 3 days after application
[5] = 0.75 l/ha @ R1, 7 days after application
[6] = 0.75 l/ha @ R1, 10 days after application
[7] = 0.75 l/ha @ R1, 14 days after application
[8] = 0.75 l/ha @ R1, 21 days after application
[9] = 0.75 l/ha @ R1, 24 days after application
[10] = 0.75 l/ha @ R1, 28 days after application
[11] = 0.75 l/ha @ R1, 31 days after application
[12] = 0.75 l/ha @ R1, 36 days after application
[13] = 0.75 l/ha @ R1, 41 days after application
[14] = 0.75 l/ha @ R1, 43 days after application
[15] = 0.75 l/ha @ R1, -1 days after application
[16] = 0.75 l/ha @ R3 - 3 days, 0 days after application
[17] = 0.75 l/ha @ R3 - 3 days, 3 days after application
[18] = 0.75 l/ha @ R3 - 3 days, 7 days after application
[19] = 0.75 l/ha @ R3 - 3 days, 14 days after application
[20] = 0.75 l/ha @ R3 - 3 days, 17 days after application
[21] = 0.75 l/ha @ R3 - 3 days, 21 days after application
[22] = 0.75 l/ha @ R3 - 3 days, 24 days after application
[23] = 0.75 l/ha @ R3 - 3 days, 29 days after application
[24] = 0.75 l/ha @ R3 - 3 days, 34 days after application
[25] = 0.75 l/ha @ R3 - 3 days, 36 days after application
[26] = 0.75 l/ha @ R3 - 3 days, -3 days after application
[27] = 0.75 l/ha @ R3 - 3 days, -7 days after application

## Cn1cc(C(=O)Nc2cccc3c2C2CCC3C2=C(Cl)Cl)c(C(F)F)n1 (stereo not shown) [Compound I, benzovindiflupyr]
[1]; [4]
  Average plant colour (increase/decrease (%) compared to negative control treatment): 1.3%
  Digital biomass (increase/decrease (%) compared to negative control treatment): 2.6%
[1]; [5]
  Average plant colour (increase/decrease (%) compared to negative control treatment): 0.4%
  Digital biomass (increase/decrease (%) compared to negative control treatment): 0.4%
[1]; [6]
  Average plant colour (increase/decrease (%) compared to negative control treatment): -0.4%
  Digital biomass (increase/decrease (%) compared to negative control treatment): 1.9%
[1]; [7]
  Average plant colour (increase/decrease (%) compared to negative control treatment): -0.6%
  Digital biomass (increase/decrease (%) compared to negative control treatment): 2.4%
[1]; [8]
  Average plant colour (increase/decrease (%) compared to negative control treatment): -0.3%
  Digital biomass (increase/decrease (%) compared to negative control treatment): -1.5%
[1]; 0.75 l/ha @ R1
  Dry weight of pods: 106.3 % of control
[1]; [9]
  Average plant colour (increase/decrease (%) compared to negative control treatment): -0.3%
  Digital biomass (increase/decrease (%) compared to negative control treatment): -1.1%
[1]; [10]
  Average plant colour (increase/decrease (%) compared to negative control treatment): -1.6%
  Digital biomass (increase/decrease (%) compared to negative control treatment): 1.2%
[1]; [11]
  Average plant colour (increase/decrease (%) compared to negative control treatment): -3.0%
  Digital biomass (increase/decrease (%) compared to negative control treatment): -3.7%
[1]; [12]
  Average plant colour (increase/decrease (%) compared to negative control treatment): -0.5%
  Digital biomass (increase/decrease (%) compared to negative control treatment): -6.3%
[1]; [13]
  Average plant colour (increase/decrease (%) compared to negative control treatment): -1.4%
  Digital biomass (increase/decrease (%) compared to negative control treatment): -9.2%
[1]; [14]
  Average plant colour (increase/decrease (%) compared to negative control treatment): -2.0%
  Digital biomass (increase/decrease (%) compared to negative control treatment): -6.9%
[1]; [15]
  Average plant colour (increase/decrease (%) compared to negative control treatment): 0.3%
  Digital biomass (increase/decrease (%) compared to negative control treatment): 1.5%
[1]; [16]
  Average plant colour (increase/decrease (%) compared to negative control treatment): 0.4%
  Digital biomass (increase/decrease (%) compared to negative control treatment): 3.6%
[1]; [17]
  Average plant colour (increase/decrease (%) compared to negative control treatment): 1.3%
  Digital biomass (increase/decrease (%) compared to negative control treatment): 4.3%
[1]; [18]
  Average plant colour (increase/decrease (%) compared to negative control treatment): 0.4%
  Digital biomass (increase/decrease (%) compared to negative control treatment): 2.7%
[1]; [19]
  Average plant colour (increase/decrease (%) compared to negative control treatment): -0.2%
  Digital biomass (increase/decrease (%) compared to negative control treatment): 1.5%
[1]; [20]
  Average plant colour (increase/decrease (%) compared to negative control treatment): 1.4%
  Digital biomass (increase/decrease (%) compared to negative control treatment): 4.4%
[1]; [21]
  Average plant colour (increase/decrease (%) compared to negative control treatment): 0.2%
  Digital biomass (increase/decrease (%) compared to negative control treatment): 4.4%
[1]; 0.75 l/ha @ R3 - 3 days
  Dry weight of pods: 105.8 % of control
[1]; [22]
  Average plant colour (increase/decrease (%) compared to negative control treatment): 1.3%
  Digital biomass (increase/decrease (%) compared to negative control treatment): -2.4%
[1]; [23]
  Average plant colour (increase/decrease (%) compared to negative control treatment): -0.5%
  Digital biomass (increase/decrease (%) compared to negative control treatment): -0.9%
[1]; [24]
  Average plant colour (increase/decrease (%) compared to negative control treatment): -2.3%
  Digital biomass (increase/decrease (%) compared to negative control treatment): -3.3%
[1]; [25]
  Average plant colour (increase/decrease (%) compared to negative control treatment): -3.9%
  Digital biomass (increase/decrease (%) compared to negative control treatment): 1.6%
[1]; [26]
  Average plant colour (increase/decrease (%) compared to negative control treatment): 0.4%
  Digital biomass (increase/decrease (%) compared to negative control treatment): 2.2%
[1]; [27]
  Average plant colour (increase/decrease (%) compared to negative control treatment): 0.1%
  Digital biomass (increase/decrease (%) compared to negative control treatment): -1.2%
[2]
  production of the enzyme glutathione reductase compared to the untreated control: increase in the production of the enzyme glutathione reductase
[3]; EC 100 at 30 or 75 g ha^-1, BBCH 39 to 55, all trials, 7 and 14 days after application
  general phytotoxicity: did not cause any phytotoxic effects
[3]; controlled drought stress conditions
  average grain yield increase with 75 g ha^-1 compared to the rate of 30 g ha^-1: +0.23 dt ha^-1
[3]
  average grain yield increase compared to untreated check: +5.2%
  mean TGW increase versus untreated check: +1.9%
  grain yield increase compared to untreated check: +6.0%
[3]; 95% CI +1.45 to +3.21 dt ha^-1
  average grain yield increase compared to untreated check: +2.33 dt ha^-1
[3]; 95 % CI [+0.23, +1.13] g 1000 seeds^-1
  mean TGW increase versus untreated check: 0.68 g 1000 seeds^-1
[3]; 95% CI [+1.69, +4.03] dt ha^-1
  grain yield increase compared to untreated check: +2.86 dt ha^-1
[3]; single trial ANOVA, p ≤ 0.05
  TGW compared to untreated check: did not detect any significant effect
  grain yield adjusted to 10% standard moisture compared to untreated check: did not detect any significant effect
